{
  "source": "patent US20090191194A1",
  "about": "“INHIBITION OF PROTEIN KINASE C ALPHA FOR THE TREATMENT OF CARDIOVASCULAR DISEASES” (Phenos GmbH, priority 2002, published 2009)",
  "origin": "cited, not measured here",
  "key": {"[1]": {"molecular_target": "cellular protein kinase C-alpha (Homo sapiens, UniProt P17252)", "conditions": "by changing the phosphorylation state of PKC-alpha"}, "PKC-alpha": {"molecular_target": "PKC-alpha (Homo sapiens, UniProt P17252)", "conditions": "higher TPA concentration, for example 1.6 μM"}, "[2]": {"tested_on": "protein kinase C isoform beta I"}, "[3]": {"tested_on": "protein kinase C isoform beta II"}, "[4]": {"tested_on": "protein kinase C isoform alpha"}},
  "data": [
    {"molecule": "Cc1c(C)c2c(c(C)c1O)CC[C@@](C)(CCC[C@H](C)CCC[C@H](C)CCCC(C)C)O2", "note": "[alpha-tocopherol]", "values": [
      {"measurement": "inactivation of cellular protein kinase C-alpha", "setting": "[1]", "result": "inactivate"}
    ]},
    {"molecule": "CCCCCCCCCCCCCC(=O)O[C@@H]1[C@@H](C)[C@@]2(O)[C@@H](C=C(CO)C[C@]3(O)C(=O)C(C)=C[C@@H]23)[C@@H]2C(C)(C)[C@]12OC(C)=O", "note": "[TPA, 12-o-tetradecanoylphorbol-13-acetate]", "values": [
      {"measurement": "PKC-alpha expression", "setting": "PKC-alpha", "result": "completely inhibits"}
    ]},
    {"molecule": "cyclosporine A", "values": [
      {"measurement": "expression of protein kinase C isoform beta I", "setting": "[2]", "result": "reduces the expression"},
      {"measurement": "expression of protein kinase C isoform beta II", "setting": "[3]", "result": "reduces the expression"},
      {"measurement": "expression of protein kinase C isoform alpha", "setting": "[4]", "result": "reduces the expression"}
    ]}
  ]
}
